Tests used:
[1] = test system: NCI-H358 cells (K-Ras G12C); experiment: Potency assay: pERK in NCI-H358 cells; format: cell-based, human; conditions: Homo sapiens, NCI-H358; H358 KRAS G12C; read-out: pERK EC50
In short: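 Inhibition of cellular pERK after a 4 h treatment, detected by AlphaLISA or In-Cell Western. IC50 from a four-parameter concentration-response fit.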

[2] = target: K-Ras G13C (Homo sapiens (Human), UniProt P01116+P62937, G13C); experiment: Ras-Raf (BRAF RBD) disruption / FRET / MOA assay, KRAS G13C; format: biochemical; conditions: KRAS G13C; Ras-Raf disruption/FRET/MOA assay; read-out: IC50* KRAS G13C FRET data
In short: (§1)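 Compounds, top final concentration 30 μM in 10-point 3-fold series, incubated 3 hours at 25° C with nucleotide-loaded Ras, cyclophilin A and BRAF RBD.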

[3] = target: KRAS G12V (Homo sapiens (Human), UniProt P01116+P62937, G12V); experiment: Ras-Raf (BRAF RBD) disruption / FRET / MOA assay, KRAS G12V; format: biochemical; conditions: read-out: IC50* KRAS G12V FRET data
In short: as §1

[4] = target: KRAS G13D (Homo sapiens (Human), UniProt P01116+P62937, G13D); experiment: Ras-Raf (BRAF RBD) disruption / FRET / MOA assay, KRAS G13D; format: biochemical; conditions: read-out: IC50* KRAS G13D FRET data
In short: as §1

[5] = target: KRAS Q61H (Homo sapiens (Human), UniProt P01116+P62937, Q61H); experiment: Ras-Raf (BRAF RBD) disruption / FRET / MOA assay, KRAS Q61H; format: biochemical; conditions: Ras-Raf disruption/FRET/MOA assay; class symbols; read-out: KRAS Q61H FRET data IC50
In short: (§2)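 TR-FRET disruption of nucleotide-loaded Ras binding to BRAF RBD via compound-driven ternary complex with cyclophilin A. Compound as 10-point 3-fold series from 30 μM final, 3 h at 25° C, then anti-His Eu-W1024 (10 nM) and anti-GST allophycocyanin (50 nM) for 1.5 h. IC50 from decreased FRET ratio versus DMSO.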

[6] = target: NRAS G12C (Homo sapiens (Human), UniProt P01111+P62937, G12C); experiment: Ras-Raf (BRAF RBD) disruption / FRET / MOA assay, NRAS G12C; format: biochemical; conditions: read-out: IC50* NRAS G12C FRET data
In short: as §1

[7] = target: NRAS WT (Homo sapiens (Human), UniProt P01111+P62937); experiment: Ras-Raf (BRAF RBD) disruption / FRET / MOA assay, NRAS WT; format: biochemical; conditions: read-out: IC50* NRAS WT FRET data
In short: as §2

Sequence of NRAS WT (P01111 whole entry): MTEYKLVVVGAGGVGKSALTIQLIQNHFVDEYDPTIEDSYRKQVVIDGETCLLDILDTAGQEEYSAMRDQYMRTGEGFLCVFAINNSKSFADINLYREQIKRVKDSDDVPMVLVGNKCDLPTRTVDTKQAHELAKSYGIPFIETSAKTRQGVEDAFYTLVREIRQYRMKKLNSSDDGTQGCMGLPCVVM
Sequence of NRAS WT (P62937 whole entry): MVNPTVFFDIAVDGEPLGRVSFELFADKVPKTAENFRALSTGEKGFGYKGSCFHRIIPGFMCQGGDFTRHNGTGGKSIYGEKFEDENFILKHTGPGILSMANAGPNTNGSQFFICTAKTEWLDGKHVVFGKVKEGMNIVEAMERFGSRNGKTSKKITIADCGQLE
Sequence of K-Ras G13C (P01116-2 other isoform, or with tags, fused parts or gaps G13C): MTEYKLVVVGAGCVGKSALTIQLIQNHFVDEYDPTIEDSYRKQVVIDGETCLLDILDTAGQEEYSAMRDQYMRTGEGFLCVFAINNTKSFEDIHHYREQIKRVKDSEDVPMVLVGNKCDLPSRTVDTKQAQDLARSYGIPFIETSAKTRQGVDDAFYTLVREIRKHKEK
Sequence of K-Ras G13C (P62937 whole entry): as the sequence (P62937 whole entry) above
Sequence of KRAS Q61H (P01116-2 other isoform, or with tags, fused parts or gaps Q61H): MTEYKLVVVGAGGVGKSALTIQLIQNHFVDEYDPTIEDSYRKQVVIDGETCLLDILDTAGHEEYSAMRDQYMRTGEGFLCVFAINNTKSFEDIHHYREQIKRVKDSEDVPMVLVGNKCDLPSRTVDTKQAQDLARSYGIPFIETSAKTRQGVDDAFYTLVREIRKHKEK
Sequence of KRAS Q61H (P62937 whole entry): as the sequence (P62937 whole entry) above
Sequence of KRAS G13D (P01116-2 other isoform, or with tags, fused parts or gaps G13D): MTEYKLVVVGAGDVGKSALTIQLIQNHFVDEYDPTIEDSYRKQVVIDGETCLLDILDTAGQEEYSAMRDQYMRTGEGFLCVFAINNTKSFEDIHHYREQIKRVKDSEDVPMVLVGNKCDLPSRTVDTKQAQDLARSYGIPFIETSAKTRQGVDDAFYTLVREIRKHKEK
Sequence of KRAS G13D (P62937 whole entry): as the sequence (P62937 whole entry) above
Sequence of NRAS G12C (P01111 whole entry G12C): as the sequence (P01111 whole entry) above, with G12C counted along it
Sequence of NRAS G12C (P62937 whole entry): as the sequence (P62937 whole entry) above
Sequence of KRAS G12V (P01116-2 other isoform, or with tags, fused parts or gaps G12V): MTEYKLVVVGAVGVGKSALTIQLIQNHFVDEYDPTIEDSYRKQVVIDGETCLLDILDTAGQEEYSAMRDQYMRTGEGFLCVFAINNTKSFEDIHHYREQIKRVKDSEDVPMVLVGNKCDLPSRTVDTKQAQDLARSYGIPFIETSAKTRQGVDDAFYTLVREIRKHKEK
Sequence of KRAS G12V (P62937 whole entry): as the sequence (P62937 whole entry) above

| Structure (SMILES) | EC50 [1] [µM] | IC50 [2] [µM] | IC50 [3] [µM] | IC50 [4] [µM] | IC50 [5] [µM] | IC50 [6] [µM] | IC50 [7] [µM] |
| --- | --- | --- | --- | --- | --- | --- | --- |
| CO[C@@H](C)c1ncccc1-c1c2c3cc(ccc3n1CC(F)(F)F)-c1nc(co1)C[C@H](NC(=O)[C@@H](COC1CN(C(=O)C#CC(C)(C)N(C)C)C1)C(C)C)C(=O)N1CCC[C@H](N1)C(=O)OCC(C)(C)C2 (atropisomer, axis not shown) [Example A674] | < 5 | 1 to 10 | > 10 | > 10 | 1 to 10 | 0.01 to 0.1 | > 10 |
| C=CC(=O)N1CC[C@@]2(COCCN2C(=O)N(C)[C@H](C(=O)N[C@H]2Cc3nc(cs3)-c3ccc4c(c3)c(c(-c3cccnc3[C@H](C)OC)n4CC)CC(C)(C)COC(=O)[C@@H]3CCCN(N3)C2=O)C(C)C)C1 (atropisomer, axis not shown) [Example A677] | < 5 | 1 to 10 | 1 to 10 | 1 to 10 | 0.1 to 1 | 0.1 to 1 | 0.1 to 1 |
| C=CC(=O)N1CCC2(CC1)CCN2C(=O)N(C)[C@H](C(=O)N[C@H]1Cc2nc(cs2)-c2ccc3c(c2)c(c(-c2cccnc2[C@H](C)OC)n3CC)CC(C)(C)COC(=O)[C@@H]2CCCN(N2)C1=O)C(C)C (atropisomer, axis not shown) [Example A678] | < 5 | 0.1 to 1 | 0.1 to 1 | 0.1 to 1 | 0.01 to 0.1 | 0.01 to 0.1 | 0.1 to 1 |
| CCn1c(-c2cccnc2[C@H](C)OC)c2c3cc(ccc31)-c1csc(n1)C[C@H](NC(=O)[C@H](C(C)C)N(C)C(=O)N1CCC3(CC1)CN(C(=O)/C=C/C(F)F)C3)C(=O)N1CCC[C@H](N1)C(=O)OCC(C)(C)C2 (atropisomer, axis not shown) [Example A683] | < 5 | < 0.01 | 0.1 to 1 | 0.1 to 1 | 0.01 to 0.1 | 0.01 to 0.1 | 0.1 to 1 |
| C=CC(=O)N1CC[C@H](C(=O)N(C)[C@H](C(=O)N[C@H]2Cc3cccc(c3)-c3ccc4c(c3)c(c(-c3cccnc3[C@H](C)OC)n4CC)CC(C)(C)COC(=O)[C@@H]3CCCN(N3)C2=O)C(C)(C)F)C1 (atropisomer, axis not shown) [Example A693] | < 5 | 1 to 10 | 1 to 10 | 1 to 10 | 1 to 10 | 0.1 to 1 | 1 to 10 |
| C=CC(=O)N1CCC2(CCN(C(=O)N(C)[C@H](C(=O)N[C@H]3Cc4nc(cs4)-c4ccc5c(c4)c(c(-c4cccnc4[C@H](C)OC)n5CC)CC(C)(C)COC(=O)[C@@H]4CCCN(N4)C3=O)C(C)C)CC2)C1 (atropisomer, axis not shown) [Example A698] | < 5 | 0.01 to 0.1 | 0.1 to 1 | 0.1 to 1 | 0.01 to 0.1 | 0.01 to 0.1 | 0.1 to 1 |
| CCn1c(-c2cccnc2[C@H](C)OC)c2c3cc(ccc31)-c1csc(n1)C[C@H](NC(=O)[C@H](C(C)C)N(C)C(=O)N1CCN(C(=O)/C=C/CN(C)C)C3(CC3)C1)C(=O)N1CCC[C@H](N1)C(=O)OCC(C)(C)C2 (atropisomer, axis not shown) [Example A701] | < 5 | 0.1 to 1 | 0.1 to 1 | 0.1 to 1 | 0.01 to 0.1 | 0.01 to 0.1 | 0.1 to 1 |
| C=CC(=O)N1CCC2(CC1)CN(C(=O)N(C)[C@H](C(=O)N[C@H]1Cc3nc(cs3)-c3ccc4c(c3)c(c(-c3cccnc3[C@H](C)OC)n4CC)CC(C)(C)COC(=O)[C@@H]3CCCN(N3)C1=O)C(C)C)C2 (atropisomer, axis not shown) [Example A702] | < 5 | 0.1 to 1 | 0.1 to 1 | 1 to 10 | 0.01 to 0.1 | 0.1 to 1 | 0.1 to 1 |
| C=CC(=O)N(C)[C@H]1C[C@@H](N(C)C(=O)N(C)[C@H](C(=O)N[C@H]2Cc3nc(cs3)-c3ccc4c(c3)c(c(-c3cccnc3[C@H](C)OC)n4CC)CC(C)(C)COC(=O)[C@@H]3CCCN(N3)C2=O)C(C)C)C1 (atropisomer, axis not shown) [Example A704] | < 5 | 0.1 to 1 | 0.1 to 1 | 0.1 to 1 | 0.01 to 0.1 | 0.01 to 0.1 | 0.01 to 0.1 |
| C=CC(=O)N(C)[C@H]1C[C@H](N(C)C(=O)N(C)[C@H](C(=O)N[C@H]2Cc3nc(cs3)-c3ccc4c(c3)c(c(-c3cccnc3[C@H](C)OC)n4CC)CC(C)(C)COC(=O)[C@@H]3CCCN(N3)C2=O)C(C)C)C1 (atropisomer, axis not shown) [Example A712] | < 5 | 0.1 to 1 | 0.1 to 1 | 0.1 to 1 | 0.01 to 0.1 | 0.01 to 0.1 | 0.01 to 0.1 |
| C=CC(=O)N1CCO[C@@H]2CN(C(=O)N(C)[C@H](C(=O)N[C@H]3Cc4nc(cs4)-c4ccc5c(c4)c(c(-c4cccnc4[C@H](C)OC)n5CC)CC(C)(C)COC(=O)[C@@H]4CCCN(N4)C3=O)C(C)C)C[C@@H]21 (atropisomer, axis not shown) [Example A714] | < 5 | 0.01 to 0.1 | 0.1 to 1 | 1 to 10 | 0.1 to 1 | 0.1 to 1 | 0.1 to 1 |
| CCn1c(-c2cccnc2[C@H](C)OC)c2c3cc(ccc31)N1CCC[C@@H](C[C@H](NC(=O)[C@@H](COC3CN(C(=O)C#CC(C)(C)N(C)C)C3)C(C)C)C(=O)N3CCC[C@H](N3)C(=O)OCC(C)(C)C2)C1 (atropisomer, axis not shown) [Example A715, (2R)-2-(((1-(4-(dimethylamino)-4-methylpent-2-ynoyl)azetidin-3-yl)oxy)methyl)-N-((2^3S,6^3S,4S)-1^1-ethyl-1^2-(2-((S)-1-methoxyethyl)pyridin-3-yl)-10,10-dimethyl-5,7-dioxo-6^1,6^2,6^3,6^4,6^5,6^6-hexahydro-1^1H-8-oxa-1(5,3)-indola-6(1,3)-pyridazina-2(1,3)-piperidinacycloundecaphane-4-yl)-3-methylbutanamide] | < 5 | > 10 | > 10 | > 10 | > 10 | 0.01 to 0.1 | > 10 |
| C=CC(=O)N1CCN(C(=O)N(C)[C@H](C(=O)N[C@H]2Cc3nc(cs3)-c3ccc4c(c3)c(c(-c3cccnc3[C@H](C)OC)n4CC)CC(C)(C)COC(=O)[C@@H]3CCCN(N3)C2=O)C(C)C)[C@@H]2CC[C@@H]21 (atropisomer, axis not shown) [Example A718] | < 5 | 0.01 to 0.1 | 0.1 to 1 | 0.1 to 1 | 0.01 to 0.1 | 0.1 to 1 | 0.1 to 1 |
| C=CC(=O)N1CC[C@]2(CCN(C(=O)N(C)[C@H](C(=O)N[C@H]3Cc4nc(cs4)-c4ccc5c(c4)c(c(-c4cccnc4[C@H](C)OC)n5CC)CC(C)(C)COC(=O)[C@@H]4CCCN(N4)C3=O)C(C)C)C2)C1 (atropisomer, axis not shown) [Example A719] | < 5 | 0.01 to 0.1 | 0.1 to 1 | 0.1 to 1 | 0.01 to 0.1 | 0.01 to 0.1 | 0.01 to 0.1 |
| C=CC(=O)N1CC(OC[C@H](C(=O)N[C@H]2Cc3cc(F)cc(c3)-c3ccc4c(c3)c(c(-c3cccnc3[C@H](C)OC)n4CC(F)(F)F)CC(C)(C)COC(=O)[C@@H]3CCCN(N3)C2=O)C(C)C)C1 (atropisomer, axis not shown) [Example A725] | < 5 | 0.1 to 1 | 1 to 10 | 1 to 10 | 0.1 to 1 | 0.1 to 1 | 1 to 10 |
| C=CC(=O)N1CC[C@H](N(C)C(=O)N(C)[C@H](C(=O)N[C@H]2Cc3nc(cs3)-c3ccc4c(c3)c(c(-c3cccnc3[C@H](C)OC)n4CC)CC(C)(C)COC(=O)[C@@H]3CCCN(N3)C2=O)C(C)C)C1 (atropisomer, axis not shown) [Example A728] | < 5 | 0.1 to 1 | 0.1 to 1 | 1 to 10 | 0.1 to 1 | 0.1 to 1 | 0.1 to 1 |
| C=CC(=O)N1CCN(C(=O)N(C)[C@H](C(=O)N[C@H]2Cc3nc(cs3)-c3ccc4c(c3)c(c(-c3cccnc3[C@H](C)OC)n4CC)CC(C)(C)COC(=O)[C@@H]3CCCN(N3)C2=O)C(C)C)[C@H]2CC[C@H]21 (atropisomer, axis not shown) [Example A734] | < 5 | 0.01 to 0.1 | 0.01 to 0.1 | 0.1 to 1 | 0.01 to 0.1 | 0.01 to 0.1 | 0.01 to 0.1 |
